The values below come from US8349828B2, “Azatricyclic antibiotic compounds” (Actelion Pharmaceuticals Ltd., priority 2008, dated 2013).

Each structure is given as a SMILES string. ≈ marks a conversion by molar mass, not a printed value. Some results are limits rather than exact numbers.

The experiment relates to M. catarrhalis A894. Put plainly: MIC determination by microdilution in cation-adjusted Mueller-Hinton Broth (CLSI M7-A7). It is filed as cell-based. Particulars: Moraxella catarrhalis, A894, microdilution method. How it is done: Minimal inhibitory concentrations (MICs, in mg/l) were determined in cation-adjusted Mueller-Hinton Broth by a microdilution method following the description given in “Methods for Dilution Antimicrobial Susceptibility Tests for Bacteria that Grow Aerobically”, Approved standard, 7th ed., Clinical and Laboratory Standards Institute (CLSI) Document M7-A7, Wayne, Pa., USA, 2006. All Example compounds were tested against several Gram-positive and Gram-negative bacteria.
In general terms: In broth dilution the organism is exposed to a series of concentrations in liquid medium.
`O=C1CSc2ccc(N3C[C@@H](CNCC4Cn5c(=O)ccc6nccc(c65)O4)OC3=O)cc2N1` (mixture of isomers) [Example 1, 2-(RS)-({[(R)-2-oxo-3-(3-oxo-3,4-dihydro-2H-benzo[1,4]thiazin-6-yl)-oxazolidin-5-ylmethyl]-amino}-methyl)-2,3-dihydro-1-oxa-3a,7-diaza-phenalen-4-one]: the MIC (usually the smallest concentration in the dilution series that meets the test's criterion for growth inhibition) is not above 0.063 µg/mL.

In turn, `O=C1COc2ccc(N3C[C@@H](CNCC4Cn5c(=O)ccc6nccc(c65)O4)OC3=O)cc2N1` (mixture of isomers) [Example 2, 2-(RS)-({[(R)-2-oxo-3-(3-oxo-3,4-dihydro-2H-benzo[1,4]oxazin-6-yl)-oxazolidin-5-ylmethyl]-amino}-methyl)-2,3-dihydro-1-oxa-3a,7-diaza-phenalen-4-one] returned an MIC of 0.5 µg/mL.

The molecule `O=C1CSc2ccc(N3C[C@@H](CNCC4Cc5c(F)ccc6ccc(=O)n(c56)C4)OC3=O)cc2N1` (mixture of isomers) [Example 3, (6RS)-8-fluoro-6-({[(R)-2-oxo-3-(3-oxo-3,4-dihydro-2H-benzo[1,4]thiazin-6-yl)-oxazolidin-5-ylmethyl]-amino}-methyl)-6,7-dihydro-5H-pyrido[3,2,1-ij]quinolin-3-one] came in with an MIC not above 0.063 µg/mL.

Consider `O=C1COc2ccc(N3C[C@@H](CNCC4Cc5c(F)ccc6ccc(=O)n(c56)C4)OC3=O)cc2N1` (mixture of isomers) [Example 4, (6RS)-8-fluoro-6-({[(R)-2-oxo-3-(3-oxo-3,4-dihydro-2H-benzo[1,4]oxazin-6-yl)-oxazolidin-5-ylmethyl]-amino}-methyl)-6,7-dihydro-5H-pyrido[3,2,1-ij]quinolin-3-one], for which the MIC is not above 0.063 µg/mL.

On to `O=C1O[C@H](CNCC2Cc3c(F)ccc4ccc(=O)n(c34)C2)CN1c1ccc2c(c1)OCCO2` (mixture of isomers) [Example 5, (6RS)-6-({[(R)-3-(2,3-dihydro-benzo[1,4]dioxin-6-yl)-2-oxo-oxazolidin-5-ylmethyl]-amino}-methyl)-8-fluoro-6,7-dihydro-5H-pyrido[3,2,1-ij]quinolin-3-one], for which the MIC is not above 0.063 µg/mL.

On to `O=C1CSc2ccc(N3C[C@@H](CNCC4Cc5c(F)ccc6ccc(=O)n4c56)OC3=O)cc2N1` (mixture of isomers) [Example 9, (RS)-9-fluoro-2-({[(R)-2-oxo-3-(3-oxo-3,4-dihydro-2H-benzo[1,4]thiazin-6-yl)-oxazolidin-5-ylmethyl]-amino}-methyl)-1,2-dihydro-pyrrolo[3,2,1-ij]quinolin-4-one], for which the minimal inhibitory concentration (MIC) was not above 0.063 µg/mL.

As to `O=C1CSc2ccc(N3CC(CCNC[C@H]4Cc5c(F)ccc6ccc(=O)n4c56)OC3=O)cc2N1` (mixture of isomers) [Example 10, (R)-9-fluoro-2-({2-[(RS)-2-oxo-3-(3-oxo-3,4-dihydro-2H-benzo[1,4]thiazin-6-yl)-oxazolidin-5-yl]-ethylamino}-methyl)-1,2-dihydropyrrolo[3,2,1-ij]quinolin-4-one], the MIC was not above 0.063 µg/mL.

As to `O=C1CSc2ccc(N3C[C@@H](CNCC4Cn5c(=O)ccc6cccc(c65)O4)OC3=O)cc2N1` (mixture of isomers) [Example 11, (RS)-2-({[(R)-2-oxo-3-(3-oxo-3,4-dihydro-2H-benzo[1,4]thiazin-6-yl)-oxazolidin-5-ylmethyl]-amino}-methyl)-2,3-dihydro-1-oxa-3a-aza-phenalen-4-one], the MIC was not above 0.063 µg/mL.

In the case of `O=C1CSc2ccc(N3C[C@@H](CNCC4Cn5c(=O)ccc6ccc(F)c(c65)O4)OC3=O)cc2N1` (mixture of isomers) [Example 12, (RS)-9-fluoro-2-({[(R)-2-oxo-3-(3-oxo-3,4-dihydro-2H-benzo[1,4]thiazin-6-yl)-oxazolidin-5-ylmethyl]-amino}-methyl)-2,3-dihydro-1-oxa-3a-aza-phenalen-4-one], the MIC was not above 0.063 µg/mL.

In turn, `O=C1CSc2ccc(N3C[C@@H](CNCC4Cc5c(F)cnc6ccc(=O)n(c56)C4)OC3=O)cc2N1` (mixture of isomers) [Example 13, (RS)-3-fluoro-5-({[(R)-2-oxo-3-(3-oxo-3,4-dihydro-2H-benzo[1,4]thiazin-6-yl)-oxazolidin-5-ylmethyl]-amino}-methyl)-5,6-dihydro-4H-1,6a-diaza-phenalen-7-one] displayed an MIC not above 0.063 µg/mL.

Regarding `O=C1COc2ccc(N3C[C@@H](CNCC4Cc5c(F)cnc6ccc(=O)n(c56)C4)OC3=O)cc2N1` (mixture of isomers) [Example 14, (RS)-3-fluoro-5-({[(R)-2-oxo-3-(3-oxo-3,4-dihydro-2H-benzo[1,4]oxazin-6-yl)-oxazolidin-5-ylmethyl]-amino}-methyl)-5,6-dihydro-4H-1,6a-diaza-phenalen-7-one], the MIC is not above 0.063 µg/mL.

Molecule `O=C1CSc2ccc(N3C[C@@H](CCNCC4Cc5c(F)cnc6ccc(=O)n4c56)OC3=O)cc2N1` (mixture of isomers) [Example 15, (RS)-3-fluoro-5-({2-[(R)-2-oxo-3-(3-oxo-3,4-dihydro-2H-benzo[1,4]thiazin-6-yl)-oxazolidin-5-yl]-ethylamino}-methyl)-4,5-dihydropyrrolo[3,2,1-de][1,5]naphthyridin-7-one] came in with an MIC not above 0.063 µg/mL.

On to `O=C1COc2ccc(N3C[C@@H](CCNCC4Cc5c(F)ccc6ccc(=O)n4c56)OC3=O)cc2N1` (mixture of isomers) [Example 21, (RS)-9-fluoro-2-({2-[(R)-2-oxo-3-(3-oxo-3,4-dihydro-2H-benzo[1,4]oxazin-6-yl)-oxazolidin-5-yl]-ethylamino}-methyl)-1,2-dihydropyrrolo[3,2,1-ij]quinolin-4-one], for which the MIC was not above 0.063 µg/mL.

`O=C1COc2ccc(N3C[C@H](CCNCC4Cc5c(F)ccc6ccc(=O)n4c56)OC3=O)cc2N1` (mixture of isomers) [Example 22, (RS)-9-fluoro-2-({2-[(S)-2-oxo-3-(3-oxo-3,4-dihydro-2H-benzo[1,4]oxazin-6-yl)-oxazolidin-5-yl]-ethylamino}-methyl)-1,2-dihydropyrrolo[3,2,1-ij]quinolin-4-one] yielded an MIC not above 0.063 µg/mL.

In the case of `O=C1COc2ccc(N3C[C@@H](CCNCC4Cc5c(F)ccc6c5N4C(=O)CC6)OC3=O)cc2N1` (mixture of isomers) [Example 23, (RS)-9-fluoro-2-({2-[(R)-2-oxo-3-(3-oxo-3,4-dihydro-2H-benzo[1,4]oxazin-6-yl)-oxazolidin-5-yl]-ethylamino}-methyl)-1,2,5,6-tetrahydropyrrolo[3,2,1-ij]quinolin-4-one], the MIC was not above 0.063 µg/mL.

`O=C1CSc2ccc(N3C[C@@H](CCNCC4Cc5ccnc6ccc(=O)n4c56)OC3=O)cc2N1` (mixture of isomers) [Example 24, (RS)-5-({2-[(R)-2-oxo-3-(3-oxo-3,4-dihydro-2H-benzo[1,4]thiazin-6-yl)-oxazolidin-5-yl]-ethylamino}-methyl)-4,5-dihydro-pyrrolo[3,2,1-de][1,5]naphthyridin-7-one] came in with an MIC of 2 µg/mL.

On to `O=C1COc2ccc(N3C[C@H](CCNCC4Cc5ccnc6ccc(=O)n4c56)OC3=O)cc2N1` (mixture of isomers) [Example 25, (RS)-5-({2-[(S)-2-oxo-3-(3-oxo-3,4-dihydro-2H-benzo[1,4]oxazin-6-yl)-oxazolidin-5-yl]-ethylamino}-methyl)-4,5-dihydro-pyrrolo[3,2,1-de][1,5]naphthyridin-7-one], for which the MIC is 4 µg/mL.

In turn, `O=C1CSc2ccc(N3C[C@@H](CCNCC4Cc5cccc6ccc(=O)n4c56)OC3=O)cc2N1` (mixture of isomers) [Example 26, (RS)-2-({2-[(R)-2-oxo-3-(3-oxo-3,4-dihydro-2H-benzo[1,4]thiazin-6-yl)-oxazolidin-5-yl]-ethylamino}-methyl)-1,2-dihydro-pyrrolo[3,2,1-ij]quinolin-4-one] registered an MIC not above 0.063 µg/mL.

As to `O=C1COc2ccc(N3C[C@@H](CCNCC4Cc5cccc6ccc(=O)n4c56)OC3=O)cc2N1` (mixture of isomers) [Example 27, (RS)-2-({2-[(R)-2-oxo-3-(3-oxo-3,4-dihydro-2H-benzo[1,4]oxazin-6-yl)-oxazolidin-5-yl]-ethylamino}-methyl)-1,2-dihydro-pyrrolo[3,2,1-ij]quinolin-4-one], the MIC is not above 0.063 µg/mL.

In turn, `O=C1CSc2ccc(N3C[C@@H](CNCC4Cc5cccc6ccc(=O)n4c56)OC3=O)cc2N1` (mixture of isomers) [Example 28, (RS)-2-({[(R)-2-oxo-3-(3-oxo-3,4-dihydro-2H-benzo[1,4]thiazin-6-yl)-oxazolidin-5-ylmethyl]-amino}-methyl)-1,2-dihydro-pyrrolo[3,2,1-ij]quinolin-4-one] registered an MIC not above 0.063 µg/mL.

With `O=C1COc2ccc(N3C[C@H](CCNCC4Cc5cccc6ncc(=O)n4c56)OC3=O)nc2N1` (mixture of isomers) [Example 31, (RS)-5-({2-[(S)-2-oxo-3-(3-oxo-3,4-dihydro-2H-pyrido[3,2-b][1,4]oxazin-6-yl)-oxazolidin-5-yl]-ethylamino}-methyl)-5,6-dihydropyrrolo[1,2,3-de]quinoxalin-3-one], the MIC was not above 0.063 µg/mL.

As for `O=C1CSc2ccc(N3C[C@@H](CCN[C@@H]4Cc5c(F)ccc6ccc(=O)n(c56)C4)OC3=O)cc2N1` (racemic) [Example 7, (6RS)-8-fluoro-6-{2-[(RS)-2-oxo-3-(3-oxo-3,4-dihydro-2H-benzo[1,4]thiazin-6-yl)-oxazolidin-5-yl]-ethylamino}-6,7-dihydro-5H-pyrido[3,2,1-ij]quinolin-3-one], the MIC was not above 0.063 µg/mL.

As for `O=C1CSc2ccc(N3C[C@@H](CNC[C@H]4Cc5c(F)ccc6ccc(=O)n4c56)OC3=O)cc2N1` [Example 6, (R)-9-fluoro-2-({[(R)-2-oxo-3-(3-oxo-3,4-dihydro-2H-benzo[1,4]thiazin-6-yl)-oxazolidin-5-ylmethyl]-amino}-methyl)-1,2-dihydro-pyrrolo[3,2,1-ij]quinolin-4-one], the MIC was not above 0.063 µg/mL.

`O=C1COc2ccc(N3C[C@@H](CNC[C@H]4Cc5c(F)ccc6ccc(=O)n4c56)OC3=O)cc2N1` [Example 8, (R)-9-fluoro-2-({[(R)-2-oxo-3-(3-oxo-3,4-dihydro-2H-benzo[1,4]oxazin-6-yl)-oxazolidin-5-ylmethyl]-amino}-methyl)-1,2-dihydro-pyrrolo[3,2,1-ij]quinolin-4-one]: the MIC was found to be 0.125 µg/mL (≈ 0.269 µM).
